Each block holds one molecule with its values, some of them ahead of it. Calls of active or inactive are those of the source.
Assays:
[1] = molecular target: T1, Mitochondrial peptide methionine sulfoxide reductase (Bos taurus, UniProt P54149); type: functional;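 also: absorbance read-out, biochemical high-throughput dose-response screen for MsrA inhibitors, confirmatory; recombinant bovine MsrA coupled to E. coli TrxB with NADPH and selenocystamine; potency is for inhibitors of MsrA activity on DMSO substrate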
T1 sequence (P54149 whole entry): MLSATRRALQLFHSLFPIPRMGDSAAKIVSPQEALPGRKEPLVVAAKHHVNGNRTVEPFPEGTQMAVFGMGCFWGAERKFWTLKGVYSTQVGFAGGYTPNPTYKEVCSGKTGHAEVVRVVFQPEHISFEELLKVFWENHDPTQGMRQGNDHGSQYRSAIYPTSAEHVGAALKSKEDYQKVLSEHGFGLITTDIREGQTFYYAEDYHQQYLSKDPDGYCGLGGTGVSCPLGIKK

[2] = tested on: CHO; assay: CHO cell viability loss, potency – luminescence, cytotoxicity control for TLR9-MyD88 binding inhibitor project, dose response (AID 588339); type: functional, cell-based, hamster; conditions: Cricetulus griseus;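 also: CHO cells stably coexpressing TLR9 and MyD88 fusions from primary screen; compound exposure lasted 48 hours before viability readout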
[3] = molecular target: Beta Lactamase (Pseudomonas aeruginosa, UniProt Q932Y6); assay: BLA reporter interference, concentration series – BLA reporter cells, FRET fluorescence, artefact control for TLR9-MyD88 binding inhibitor project, dose response (AID 588341); type: cell-based;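 also: cell based assay in CHO-K1 cells stably expressing beta-lactamase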
[4] = cAMP pathway inhibition in counterscreen cell line – TR-FRET cAMP detection, counter-screen for MC4R biased antagonist project, dose response (AID 602305); type: functional, cell-based;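 also: U2OS cells stimulated with forskolin near its EC80 as the cAMP inducer; potency is for inhibition of forskolin-stimulated cAMP signaling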
[5] = molecular target: Melanocortin receptor 4 (Homo sapiens, UniProt P32245); assay: inhibitors of MC4R cAMP signaling – cell-based, TR-FRET, biased antagonists, dose response (AID 602298); type: functional;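 also: antagonist potency against agonist-stimulated cAMP production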
[6] = inhibition of ARNT PAS-B/TACC3 complex formation – biochemical, AlphaScreen, cherry-picked samples, confirmation (AID 651703); type: functional, Homo sapiens;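 also: His-tagged ARNT PAS-B domain paired with GST-TACC3 E629A dimer coactivator fragment; potency of inhibitors that break up the complex and lower AlphaScreen signal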
[7] = molecular target: T2, Apoptotic protease-activating factor 1 (Homo sapiens, UniProt O14727); assay: SAR analysis of small molecule Activators of Apaf-1 in a Fluorescent assay.; type: functional; conditions: read-out: EC50_Mean;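 also: caspase-3 cleavage of fluorogenic Rh110 DEVD substrate downstream of apoptosome activation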
T2 sequence (O14727 whole entry): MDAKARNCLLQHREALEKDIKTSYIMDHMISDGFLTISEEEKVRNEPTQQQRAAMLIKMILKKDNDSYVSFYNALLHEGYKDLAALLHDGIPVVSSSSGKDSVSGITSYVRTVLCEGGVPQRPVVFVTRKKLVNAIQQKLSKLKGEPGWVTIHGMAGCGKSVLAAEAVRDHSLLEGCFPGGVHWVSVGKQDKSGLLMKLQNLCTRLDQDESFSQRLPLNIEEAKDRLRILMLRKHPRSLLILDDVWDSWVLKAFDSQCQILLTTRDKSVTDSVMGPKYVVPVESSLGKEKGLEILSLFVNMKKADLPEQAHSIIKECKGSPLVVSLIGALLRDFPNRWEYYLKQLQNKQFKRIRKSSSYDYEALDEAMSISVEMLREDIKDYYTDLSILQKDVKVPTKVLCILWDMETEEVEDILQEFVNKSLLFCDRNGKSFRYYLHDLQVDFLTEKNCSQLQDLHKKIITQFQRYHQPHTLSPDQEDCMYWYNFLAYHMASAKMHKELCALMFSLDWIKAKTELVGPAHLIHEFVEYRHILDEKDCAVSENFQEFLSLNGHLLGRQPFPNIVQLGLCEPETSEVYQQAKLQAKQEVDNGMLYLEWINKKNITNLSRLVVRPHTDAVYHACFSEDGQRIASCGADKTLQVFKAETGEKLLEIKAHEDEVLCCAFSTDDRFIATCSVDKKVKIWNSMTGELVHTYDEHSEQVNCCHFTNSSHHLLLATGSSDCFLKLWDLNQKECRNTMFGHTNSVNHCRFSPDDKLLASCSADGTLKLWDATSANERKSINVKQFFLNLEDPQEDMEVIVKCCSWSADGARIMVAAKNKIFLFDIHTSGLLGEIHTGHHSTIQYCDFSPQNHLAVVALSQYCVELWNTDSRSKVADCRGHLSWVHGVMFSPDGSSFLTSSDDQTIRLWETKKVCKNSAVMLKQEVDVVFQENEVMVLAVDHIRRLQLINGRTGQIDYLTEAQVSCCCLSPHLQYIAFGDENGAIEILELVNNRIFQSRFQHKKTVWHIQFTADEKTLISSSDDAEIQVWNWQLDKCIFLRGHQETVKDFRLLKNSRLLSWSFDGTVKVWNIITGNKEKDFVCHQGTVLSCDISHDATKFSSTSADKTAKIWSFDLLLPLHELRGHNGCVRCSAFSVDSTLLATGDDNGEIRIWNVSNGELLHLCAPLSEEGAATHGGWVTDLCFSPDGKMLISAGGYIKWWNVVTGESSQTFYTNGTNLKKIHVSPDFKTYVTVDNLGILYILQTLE

[8] = molecular target: T3, ATP-dependent translocase ABCB1 (Homo sapiens, UniProt P08183); assay: P-gp JC-1 efflux blockade concentration-response – Jurkat-DNR cells, flow cytometry, set 2, dose response (AID 504569); type: functional; conditions: read-out: EC50_MICROM_;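 also: potency of pump inhibitors that raise cellular JC-1 green fluorescence up to the nicardipine level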
[9] = molecular target: T3, ATP-dependent translocase ABCB1; assay: inhibition of BCRP-mediated JC-1 efflux – Ig-MXP3 cells, flow cytometry, set 2, dose response (AID 504566); type: functional; conditions: read-out: EC50_MICROM_;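 also: flow cytometry median green fluorescence of retained JC-1 dye; potency of efflux pump inhibition measured as rising substrate retention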
[10] = molecular target: Testis-specific serine/threonine-protein kinase 2 (Homo sapiens, UniProt Q96PF2); type: functional;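 also: part of the Navigating the Kinome panel, target entry STK22B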
Chain of Testis-specific serine/threonine-protein kinase 2 (Q96PF2 whole entry): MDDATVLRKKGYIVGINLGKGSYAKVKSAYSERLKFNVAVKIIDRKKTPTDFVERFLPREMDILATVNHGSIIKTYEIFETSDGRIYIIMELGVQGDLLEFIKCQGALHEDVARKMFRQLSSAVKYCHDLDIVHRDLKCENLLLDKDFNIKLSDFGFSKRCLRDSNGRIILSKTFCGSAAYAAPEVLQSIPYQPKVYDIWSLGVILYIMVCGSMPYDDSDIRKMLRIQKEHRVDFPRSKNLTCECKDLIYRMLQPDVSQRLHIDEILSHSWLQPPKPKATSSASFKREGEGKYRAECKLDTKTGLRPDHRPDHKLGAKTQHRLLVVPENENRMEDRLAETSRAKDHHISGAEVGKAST

T3 sequence (P08183 whole entry): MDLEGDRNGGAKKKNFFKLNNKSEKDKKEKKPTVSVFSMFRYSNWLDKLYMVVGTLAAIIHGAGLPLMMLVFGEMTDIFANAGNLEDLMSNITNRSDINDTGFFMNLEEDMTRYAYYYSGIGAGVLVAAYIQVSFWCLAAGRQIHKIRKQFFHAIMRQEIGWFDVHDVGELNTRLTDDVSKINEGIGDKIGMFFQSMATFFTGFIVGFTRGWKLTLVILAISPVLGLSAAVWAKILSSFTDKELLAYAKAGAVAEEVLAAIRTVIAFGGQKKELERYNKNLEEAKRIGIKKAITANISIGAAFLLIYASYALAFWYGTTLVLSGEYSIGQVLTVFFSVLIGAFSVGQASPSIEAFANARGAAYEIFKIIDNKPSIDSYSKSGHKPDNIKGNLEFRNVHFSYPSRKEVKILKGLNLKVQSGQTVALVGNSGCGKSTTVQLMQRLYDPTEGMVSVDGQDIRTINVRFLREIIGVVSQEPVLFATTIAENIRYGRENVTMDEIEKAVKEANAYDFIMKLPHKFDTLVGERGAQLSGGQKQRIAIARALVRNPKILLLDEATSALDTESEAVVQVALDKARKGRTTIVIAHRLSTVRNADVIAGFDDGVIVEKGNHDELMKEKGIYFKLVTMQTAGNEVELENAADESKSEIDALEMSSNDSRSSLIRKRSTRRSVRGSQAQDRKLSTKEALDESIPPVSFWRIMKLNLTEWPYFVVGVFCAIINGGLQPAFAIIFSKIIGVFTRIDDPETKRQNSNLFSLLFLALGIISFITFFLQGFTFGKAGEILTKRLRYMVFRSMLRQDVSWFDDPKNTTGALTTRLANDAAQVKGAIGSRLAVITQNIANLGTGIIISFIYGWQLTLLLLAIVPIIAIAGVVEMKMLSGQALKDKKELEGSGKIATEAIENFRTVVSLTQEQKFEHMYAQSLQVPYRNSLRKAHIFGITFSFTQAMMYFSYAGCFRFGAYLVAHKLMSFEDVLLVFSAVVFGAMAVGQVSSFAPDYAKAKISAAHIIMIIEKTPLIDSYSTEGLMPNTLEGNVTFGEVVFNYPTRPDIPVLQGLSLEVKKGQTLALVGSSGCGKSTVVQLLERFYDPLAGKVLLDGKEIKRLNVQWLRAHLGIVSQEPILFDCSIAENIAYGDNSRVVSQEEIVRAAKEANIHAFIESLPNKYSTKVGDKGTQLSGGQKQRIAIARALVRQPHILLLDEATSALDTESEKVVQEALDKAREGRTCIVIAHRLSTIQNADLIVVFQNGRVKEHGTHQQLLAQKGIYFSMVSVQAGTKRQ
Chain of Melanocortin receptor 4 (P32245 whole entry, the tested form may be a part): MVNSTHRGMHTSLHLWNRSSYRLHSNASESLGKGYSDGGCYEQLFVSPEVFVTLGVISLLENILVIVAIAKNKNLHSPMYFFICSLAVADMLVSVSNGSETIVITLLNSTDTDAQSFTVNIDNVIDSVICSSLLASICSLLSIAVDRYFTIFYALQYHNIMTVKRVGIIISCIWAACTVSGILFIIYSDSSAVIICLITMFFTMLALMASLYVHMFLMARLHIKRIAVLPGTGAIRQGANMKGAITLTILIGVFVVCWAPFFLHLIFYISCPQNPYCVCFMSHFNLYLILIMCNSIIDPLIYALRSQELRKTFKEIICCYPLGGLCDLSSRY
Chain of Beta Lactamase (Q932Y6 whole entry): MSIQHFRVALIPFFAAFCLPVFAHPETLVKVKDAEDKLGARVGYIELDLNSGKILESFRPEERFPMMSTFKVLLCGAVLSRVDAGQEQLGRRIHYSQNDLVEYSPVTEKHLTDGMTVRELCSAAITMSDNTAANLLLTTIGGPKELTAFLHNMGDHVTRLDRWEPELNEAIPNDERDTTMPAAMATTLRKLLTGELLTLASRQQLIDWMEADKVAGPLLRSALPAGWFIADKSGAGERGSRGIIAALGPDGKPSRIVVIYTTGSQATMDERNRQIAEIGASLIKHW

- IC50 [1]: 91.2 µM (inactive)
Compound: O=C(O)c1ccc(NS(=O)(=O)c2ccc3c(c2)C(=O)c2ccccc2C3=O)cc1

Compound: O=C(NCc1ccco1)c1cccc2c1C(=O)c1ccc(N3CCC(Cc4ccccc4)CC3)cc1S2(=O)=O
- IC50 [2]: > 49.8 µM (inactive)
- IC50 [3]: 4.4 µM (active)

Compound: CCc1nc2ccc(C(=O)NCc3ccc4c(c3)OCO4)cn2c1N(CCC(C)C)CCN(C)C
- IC50 [4]: > 64.6 µM (inactive)
- IC50 [5]: 11.5 µM (inactive)

Compound: CC1CCCC(C)N1C(=O)COC(=O)c1ccc([N+](=O)[O-])o1 (configuration not stated)
- AC50 [6]: 95.7 µM (active)

- EC50 [7]: > 100 µM (inactive)
Compound: O=C1CC2(CC(c3ccccc3Cl)=NO2)C(=O)N1c1ccc2ccccc2c1 (configuration not stated)

Compound: COc1ccc(/C=N/Nc2cc(C)nc(NS(=O)(=O)c3ccc(C)cc3)n2)cc1
- IC50 [4]: > 64.6 µM (inactive)
- IC50 [5]: > 64.6 µM (inactive)

- EC50 [8]: 0.69 µM (active)
- EC50 [9]: 0.72 µM (active)
Compound: COc1ccc(-c2cc3nc(-c4ccccc4)cc(N4CCN(C(=O)c5ccccc5)CC4)n3n2)cc1

- Ki [10]: > 1.58 µM (inactive)
Compound: CC1CCN(C(=O)CC#N)CC1N(C)c1ncnc2[nH]ccc12 (configuration not stated)

From ChEMBL document CHEMBL1201862, “PubChem BioAssay data set” (2004)
